The record followed here is patent US5250542A, “Peripherally selective piperidine carboxylate opioid antagonists” (Eli Lilly and Company, priority 1992, dated 1993).

One test addresses T1, opioid receptor (Mus musculus, UniProt P42866).
T1 construct: Five CF-1 male mice (Charles River, Portage, Mich.); from tissue; host or cells: living CF-1 male mice (in vivo test; endogenous receptor)
As to the kind of experiment: mouse writhing analgesis test: block of morphine-induced analgesia. The class given is in vivo, CF-1 male mice. Also noted: unit not given here. The settings on record: dose of antagonist that reduced the inhibition of writhing produced by 1.25 mg/kg morphine sulfate to 50%; subcutaneous, 20 min before acetic acid. The procedure, abridged:
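Male CF-1 mice (~20 g, fasted overnight, n=5) dosed subcutaneously 20 min before i.p. 0.6% acetic acid; writhes counted for 10 min starting 5 min post-injection. Antagonism measured as blockade of morphine-induced inhibition of writhing, percent versus vehicle controls; ED50 defined as 50% writhing inhibition.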

In test [1] the target is T2, peripheral opioid receptors (Mus musculus, UniProt P42866).
T2 construct: Mice maintained (6 mice/cage) on 0.01M saccharin water with 1 g/1 morphine sulfate; from tissue; host or cells: living morphine-maintained mice (in vivo test; endogenous receptor)
T2 sequence (P42866 whole entry): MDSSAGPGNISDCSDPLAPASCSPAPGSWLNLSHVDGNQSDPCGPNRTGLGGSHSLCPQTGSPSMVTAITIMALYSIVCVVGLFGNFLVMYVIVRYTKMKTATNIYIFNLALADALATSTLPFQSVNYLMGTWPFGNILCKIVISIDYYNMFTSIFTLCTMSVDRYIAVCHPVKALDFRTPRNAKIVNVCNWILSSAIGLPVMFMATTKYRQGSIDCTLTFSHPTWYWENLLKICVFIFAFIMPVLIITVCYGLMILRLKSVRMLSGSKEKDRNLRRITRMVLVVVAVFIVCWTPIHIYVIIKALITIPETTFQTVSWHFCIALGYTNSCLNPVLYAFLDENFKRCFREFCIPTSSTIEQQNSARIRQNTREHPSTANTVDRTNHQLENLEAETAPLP
As to the kind of experiment: precipitated diarrhea in morphine-maintained mice (peripheral opioid activity) and comparison with the writhing test. Type of test: in vivo. The conditions noted are these: for Ratio (AD50 mouse writhing test / ED50 mouse diarrhea test): higher ratio = greater relative antagonism of peripheral opioid receptors; for ED50: mouse, 0.5 h, morphine-maintained mice, antagonist subcutaneous or oral, 30 min observation. The procedure, abridged: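 Morphine-dependent mice (1 g/l morphine sulfate in drinking water ≥10 days, withdrawn 45 min before dosing) received antagonist subcutaneously or orally, 5 mice/dose. Diarrhea (and jumping) were scored over 30 min and doses lowered to find the diarrhea threshold. Peripheral selectivity was taken as writhing AD50 divided by diarrhea ED50.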

The next test addresses T3, mu receptor (Rattus norvegicus, UniProt P33535).
T3 construct: rat whole brain minus cerebellum for mu was homogenized; from tissue; host or cells: brain of male Sprague Dawley rats, whole brain minus cerebellum, homogenate fraction
The test can be described thus: opioid receptor binding assay, [3H] NAL (tritiated naloxone), mu receptor. Also noted: species or system rat (Male Sprague Dawley), brain minus cerebellum. The conditions noted are these: for inhibition at 0.01 µM / inhibition at 0.1 µM: 20 min. The procedure, abridged: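 Displacement of [3H]naloxone was measured on rat whole brain minus cerebellum membranes, preincubated 20 min and incubated 20 min at 37° C, with filtration separating bound ligand. Ki was derived from IC50 and ligand KD. Percent displacement was also recorded at 10 nM and 100 nM test compound.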

Setting [2] is: read-out: % displacement at 10 nM, 10 nM test compound, [3H] naloxone 0.5 nM.
Where [3] appears, read: read-out: % displacement at 100 nM, 100 nM test compound, [3H] naloxone 0.5 nM.
Where [4] appears, read: 10 nM test compound, [3H] naloxone 0.5 nM, read-out: % displacement at 10 nM.
The mark [5] stands for this setting: 100 nM test compound, [3H] naloxone 0.5 nM, read-out: % displacement at 100 nM.
[6] abbreviates: read-out: % displacement at 100 nM.

pKi: −log10 of the molar value. Structures can show the parent of a compound that is named as a salt. Where two headings read alike, the source gives them in different places.

T3 sequence (P33535 whole entry): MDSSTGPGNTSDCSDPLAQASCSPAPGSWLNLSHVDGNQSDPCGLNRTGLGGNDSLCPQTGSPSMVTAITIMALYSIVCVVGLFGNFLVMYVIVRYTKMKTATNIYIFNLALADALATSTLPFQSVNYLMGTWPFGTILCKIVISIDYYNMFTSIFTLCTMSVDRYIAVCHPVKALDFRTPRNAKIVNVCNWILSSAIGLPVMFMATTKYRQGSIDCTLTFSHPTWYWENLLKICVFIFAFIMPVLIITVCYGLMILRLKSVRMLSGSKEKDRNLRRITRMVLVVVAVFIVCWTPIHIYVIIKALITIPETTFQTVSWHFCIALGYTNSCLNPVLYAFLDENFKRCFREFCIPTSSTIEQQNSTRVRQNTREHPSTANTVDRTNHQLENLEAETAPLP
T1 sequence (P42866 whole entry): as the sequence (P42866 whole entry) above

By ED50 is commonly meant the midpoint of the dose-response relation. The term pKi denotes −log10 of the Ki, conventionally taken in molar units. Regarding `C[C@H]1CN(CC(Cc2ccccc2)C(=O)N(C)CC(=O)O)CC[C@@]1(C)c1cccc(O)c1` (relative stereo) [Example 66, [[2-[[4-(3-hydroxyphenyl)-3,4-dimethyl-1-piperidinyl]methyl]-1-oxo-3-phenylpropyl]-methylamino]acetic acid monohydrate], the AD50 at opioid receptor amounted to 14.0. In test [1], the “Ratio (AD50 mouse writhing test / ED50 mouse diarrhea test)” value is under 4.7 and the ED50 was under 3 mg/kg. The compound further showed a pKi on mu receptor of 8.71. The inhibition at 0.01 µM on mu receptor (setting [2]) is 70%. Besides, at mu receptor (setting [3]), the inhibition at 0.1 µM is 85%.
`CCOC(=O)CNC(=O)CNC(=O)C(Cc1ccccc1)CN1CC[C@@](C)(c2cccc(O)c2)[C@@H](C)C1` (relative stereo) [Example 67, [[2-[2-[4-(3-hydroxyphenyl)-3,4-dimethyl-1-piperidinyl]methyl]-3-phenyl-1-oxopropyl]-amino]acetyl]amino]acetic acid ethyl ester monohydrochloride]: at opioid receptor, the AD50 is 5.5. For the same compound, in test [1], the “Ratio (AD50 mouse writhing test / ED50 mouse diarrhea test)” value turned out to be 36 and the ED50 was 0.15 mg/kg. In addition, at mu receptor, the pKi is 9.43. Also, the inhibition at 0.01 µM on mu receptor (setting [2]) was 79%. On mu receptor (setting [3]), the inhibition at 0.1 µM was found to be 91%.
For `C[C@H]1CN(CC(Cc2ccccc2)C(=O)NCC(=O)NCC(=O)O)CC[C@@]1(C)c1cccc(O)c1` (relative stereo) [Example 68, N-(carboxylmethyl-)-2-[[3-[4-(3-hydroxyphenyl)-3,4-dimethyl-1-piperidinyl]-2-(phenylmethyl)-1-oxopropyl]amino]acetamide monohydrate], the AD50 on opioid receptor was over 40. Moreover, in test [1], the “Ratio (AD50 mouse writhing test / ED50 mouse diarrhea test)” value is recorded as over 174 and the ED50 is 0.23 mg/kg. At mu receptor, the negative logarithm of the Ki (pKi) was 8.82. Besides, the inhibition at 0.01 µM at mu receptor (setting [2]) was 79%. Moreover, the inhibition at 0.1 µM on mu receptor (setting [3]) stood at 86%.
With `C[C@H]1CN(CC(Cc2ccccc2)C(=O)NCCN(C)C)CC[C@@]1(C)c1cccc(O)c1` (relative stereo) [Example 69, N-[2-(dimethylamino)ethyl]-3-[4-(3-hydroxyphenyl)-3,4-dimethyl-1-piperidine]-2-phenylmethylpropanamide dihydrochloride], the AD50 on opioid receptor was 30. Further, in test [1], the “Ratio (AD50 mouse writhing test / ED50 mouse diarrhea test)” value turned out to be 51 and the 50% effect level (ED50) was put at a dose of 1.7 mg/kg. For the same compound, at mu receptor (setting [4]), the inhibition at 0.01 µM amounted to 57%. Further, the inhibition at 0.1 µM at mu receptor (setting [5]) was found to be 89%.
At opioid receptor, `CCc1noc(CNC(=O)C(Cc2ccccc2)CN2CC[C@@](C)(c3cccc(O)c3)[C@@H](C)C2)n1` (relative stereo) [Example 71, 3-[4-(3-hydroxyphenyl)-3,4-dimethyl1-piperidinyl]-2-(phenylmethyl)-N-[(3-ethyl-1,2,4-oxadiazol-5-yl)methyl]propanamide] displayed an AD50 of 2.1. Moreover, in test [1], the “Ratio (AD50 mouse writhing test / ED50 mouse diarrhea test)” value was 11 and the ED50 turned out to be 0.19 mg/kg. On mu receptor, the pKi is 9.15. On mu receptor (setting [2]), the inhibition at 0.01 µM was determined as 81%. Besides, the inhibition at 0.1 µM on mu receptor (setting [6]) turned out to be 94%.
For `C[C@H]1CN(CC(Cc2ccccc2)C(=O)NCC(=O)NCC(=O)NCc2ccccc2)CC[C@@]1(C)c1cccc(O)c1` (relative stereo) [Example 73], the AD50 on opioid receptor is given as 20. In test [1], the “Ratio (AD50 mouse writhing test / ED50 mouse diarrhea test)” value stood at 11 and the 50% effect level (ED50) was put at a dose of 1.73 mg/kg. On mu receptor, the pKi was 8.74. For the same compound, on mu receptor (setting [2]), the inhibition at 0.01 µM was determined as 84%. Also, at mu receptor (setting [3]), the inhibition at 0.1 µM is 90%.
On opioid receptor, `CCOC(=O)CN(C)C(=O)CNC(=O)C(Cc1ccccc1)CN1CC[C@@](C)(c2cccc(O)c2)[C@@H](C)C1` (relative stereo) [Example 75] returned an AD50 of 5.2. Besides, in test [1], the “Ratio (AD50 mouse writhing test / ED50 mouse diarrhea test)” value came out at 71 and the 50% effect level (ED50) was put at a dose of 0.073 mg/kg. The same compound had a pKi at mu receptor of 8.94. In addition, the inhibition at 0.01 µM on mu receptor (setting [2]) turned out to be 90%. In addition, the inhibition at 0.1 µM at mu receptor (setting [3]) is 99%.
The compound `CCNC(=O)CNC(=O)CNC(=O)C(Cc1ccccc1)CN1CC[C@@](C)(c2cccc(O)c2)[C@@H](C)C1` (relative stereo) [Example 77] had an AD50 at opioid receptor of over 40. For the same compound, in test [1], the “Ratio (AD50 mouse writhing test / ED50 mouse diarrhea test)” value is over 31 and the 50% effective dose (ED50) turned out to be 1.31 mg/kg. The negative-log Ki (pKi) at mu receptor was 8.87. At mu receptor (setting [2]), the inhibition at 0.01 µM amounted to 88%. Also, at mu receptor (setting [3]), the inhibition at 0.1 µM came out at 95%.
At opioid receptor, `COC(=O)COC(=O)CNC(=O)C(Cc1ccccc1)CN1CC[C@@](C)(c2cccc(O)c2)[C@@H](C)C1` (relative stereo) [Example 85] showed an AD50 of 9.5. Further, in test [1], the “Ratio (AD50 mouse writhing test / ED50 mouse diarrhea test)” value is 190 and the 50% effect level (ED50) was put at a dose of 0.05 mg/kg. The inhibition at 0.01 µM on mu receptor (setting [4]) was determined as 93%. Moreover, on mu receptor (setting [6]), the inhibition at 0.1 µM worked out at 98%.
`CCCCCOC(=O)CNC(=O)C(Cc1ccccc1)CN1CC[C@@](C)(c2cccc(O)c2)[C@@H](C)C1` (relative stereo) [Example 86]: the AD50 on opioid receptor is on record as over 40. Further, in test [1], the “Ratio (AD50 mouse writhing test / ED50 mouse diarrhea test)” value is over 2353 and the 50% effect level (ED50) was put at a dose of 0.017 mg/kg. For the same compound, the inhibition at 0.01 µM on mu receptor (setting [4]) amounted to 74%. Moreover, the inhibition at 0.1 µM on mu receptor (setting [5]) came to 91%.
In turn, `C[C@H]1CN(CC(Cc2ccccc2)C(=O)NCC(=O)OCC(N)=O)CC[C@@]1(C)c1cccc(O)c1` (relative stereo) [Example 87] displayed an AD50 on opioid receptor of 19. In test [1], the “Ratio (AD50 mouse writhing test / ED50 mouse diarrhea test)” value was 27 and it took a dose of 0.71 mg/kg to reach the 50% effect level (ED50). Moreover, the inhibition at 0.01 µM at mu receptor (setting [4]) was 94%. The inhibition at 0.1 µM on mu receptor (setting [5]) turned out to be 99%.
Regarding `CNC(=O)COC(=O)CNC(=O)C(Cc1ccccc1)CN1CC[C@@](C)(c2cccc(O)c2)[C@@H](C)C1` (relative stereo) [Example 88], the AD50 at opioid receptor turned out to be 13.5. In addition, in test [1], the “Ratio (AD50 mouse writhing test / ED50 mouse diarrhea test)” value is 193 and the median effective dose (ED50) amounted to 0.07 mg/kg. On mu receptor (setting [4]), the inhibition at 0.01 µM worked out at 93%. For the same compound, the inhibition at 0.1 µM at mu receptor (setting [5]) turned out to be 99%.
The corresponding values for `CCNC(=O)COC(=O)CNC(=O)C(Cc1ccccc1)CN1CC[C@@](C)(c2cccc(O)c2)[C@@H](C)C1` (relative stereo) [Example 89] are 6.0, under 1, over 10 mg/kg, 94% and 99%.
On opioid receptor, `C[C@H]1CN(CC(Cc2ccccc2)C(=O)NCC(=O)OCC(=O)N(C)C)CC[C@@]1(C)c1cccc(O)c1` (relative stereo) [Example 90] came in with an AD50 of 2.2. In addition, in test [1], the “Ratio (AD50 mouse writhing test / ED50 mouse diarrhea test)” value is listed as 22 and the ED50 is 0.1 mg/kg. The inhibition at 0.01 µM on mu receptor (setting [4]) amounted to 93%. The inhibition at 0.1 µM at mu receptor (setting [5]) is 99%.
In turn, `C[C@H]1CN(CC(Cc2ccccc2)C(=O)NCC(=O)NCC2CCCCC2)CC[C@@]1(C)c1cccc(O)c1` (relative stereo) [Example 91] showed an AD50 at opioid receptor of 4.0. Also, in test [1], the “Ratio (AD50 mouse writhing test / ED50 mouse diarrhea test)” value came to 8 and the median effective dose (ED50) came to 0.5 mg/kg. The inhibition at 0.01 µM at mu receptor (setting [4]) was 69%. Also, on mu receptor (setting [6]), the inhibition at 0.1 µM turned out to be 94%.
The corresponding values for `COC1CCC(OC(=O)CNC(=O)C(Cc2ccccc2)CN2CC[C@@](C)(c3cccc(O)c3)[C@@H](C)C2)CC1` (relative stereo) [Example 92] are 7.7, 1540, 0.005 mg/kg, 85% and 97%.
On to `C[C@H]1CN(CC(Cc2ccccc2)C(=O)NCC(=O)OCC(=O)NCc2ccccc2)CC[C@@]1(C)c1cccc(O)c1` (relative stereo) [Example 93], for which the AD50 on opioid receptor is 29.0. Moreover, in test [1], the “Ratio (AD50 mouse writhing test / ED50 mouse diarrhea test)” value amounted to 3625 and the ED50 came to 0.008 mg/kg. Besides, the inhibition at 0.01 µM at mu receptor (setting [4]) was found to be 81%. For the same compound, the inhibition at 0.1 µM at mu receptor (setting [5]) worked out at 95%.
For `CC(=O)OC(C)OC(=O)CNC(=O)C(Cc1ccccc1)CN1CC[C@@](C)(c2cccc(O)c2)[C@@H](C)C1` (relative stereo) [Example 94] the same measures were 20, 2222, 0.009 mg/kg, 76% and 95%.
With `Cc1oc(=O)oc1COC(=O)CNC(=O)C(Cc1ccccc1)CN1CC[C@@](C)(c2cccc(O)c2)[C@@H](C)C1` (relative stereo) [Example 95], the AD50 at opioid receptor is on record as 2.7. Also, in test [1], the “Ratio (AD50 mouse writhing test / ED50 mouse diarrhea test)” value came out at 14 and the ED50 amounted to 0.19 mg/kg. Further, the inhibition at 0.01 µM at mu receptor (setting [4]) was found to be 79%. In addition, the inhibition at 0.1 µM at mu receptor (setting [6]) amounted to 94%.
